Test results from the NIST ThermoML archive (doi:10.1016/j.jct.2016.02.017).
± gives the expanded uncertainty stated by the source.

Test: Boiling temperature at pressure P
Conditions: Liquid, Ebulliometric method (Recirculating still)

O [water]
Conditions | Boiling temperature at pressure P [°C]
12.1 kPa | 50.7 ± 4
25.8 kPa | 67.2 ± 4
41.8 kPa | 78.7 ± 4
59.7 kPa | 85.5 ± 4
74.1 kPa | 91.2 ± 4
91.8 kPa | 97.7 ± 4
